Laboratory results as given in patent US20240140947A1, “COMPOUND FOR THE TREATMENT OF CANCER” (priority 2022, published 2024).

How the values were obtained:
[1] = test system: MCF7, T47D, and HCC1428 parental ER+ breast cancer cell lines; assay: Cell proliferation assay, parental ER+ breast cancer cell lines (range over lines); assay type: cell-based; details: Homo sapiens, read-out: anti-proliferation IC50 values, range over cell lines
Experimental: OVCAR3, MCF7, T47D, HCC1428, NCIH2087, NCIH358 or A549cells were seeded 1-3000 cells/well in 96-well plates in growth media containing 10% FBS and cultured overnight at 37° C. 5% CO2. The following day, compounds were serially diluted from a 10 mM top dose for an 11-point 3-fold dilution curve in DMSO. Compound 1 and PF-06873600 were intermediately diluted 1:200 into growth media prior to diluting 1:5 on cells for final concentration 10 μM to 0.1 nM in 0.1% DMSO on cells. Cells were incubated at 37° C. 5% CO2 for 7 days. CYQUANT Direct Cell Proliferation Assay (Molecular Probes, Eugene, OR) was then performed following manufacturer recommendations to determine the relative viable cell numbers on the Perkin Elmer Envision 2104 Multi Label Reader at 508 nm excitation and 527 nm emission wavelengths. IC50 values were calculated by concentration-response curve fitting utilizing a four-parameter analytical method using GraphPad Prism software.
The effect of Compound 1 on cell proliferation was assessed in multiple ER+ breast cancer cell lines, including parental and palbociclib resistant cell lines.
Similar results were shown with NCIH2087, NCIH358, and A549 NSCLC cell lines ([…].4).

CDK6/Cyclin D3 = target: T1, CDK6/Cyclin D3 (Homo sapiens, UniProt Q00534); assay: CDK6/Cyclin D3 mobility shift assay; assay type: biochemical; details: geometric mean, 3.5 mM ATP
T1 construct: LJIC-2009G1/2010+PO4
T1 sequence (Q00534 whole entry): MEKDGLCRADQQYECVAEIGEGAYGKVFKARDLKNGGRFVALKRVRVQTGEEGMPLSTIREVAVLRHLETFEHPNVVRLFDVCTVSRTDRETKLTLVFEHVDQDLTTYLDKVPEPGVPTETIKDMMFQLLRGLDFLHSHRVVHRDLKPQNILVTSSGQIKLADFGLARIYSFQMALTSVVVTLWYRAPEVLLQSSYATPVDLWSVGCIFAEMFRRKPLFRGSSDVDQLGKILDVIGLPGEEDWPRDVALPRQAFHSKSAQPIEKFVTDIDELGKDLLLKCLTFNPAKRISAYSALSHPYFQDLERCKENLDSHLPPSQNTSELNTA
T1 sequence (P30281 whole entry partner): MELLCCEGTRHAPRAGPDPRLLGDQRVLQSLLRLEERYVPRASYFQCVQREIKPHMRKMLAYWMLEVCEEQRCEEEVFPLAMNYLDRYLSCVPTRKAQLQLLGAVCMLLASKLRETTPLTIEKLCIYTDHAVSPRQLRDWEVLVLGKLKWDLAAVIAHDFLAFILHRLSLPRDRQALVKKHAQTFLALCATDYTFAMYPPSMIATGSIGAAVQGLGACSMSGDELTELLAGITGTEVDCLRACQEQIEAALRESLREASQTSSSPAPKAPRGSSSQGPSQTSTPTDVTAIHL
Experimental: The mobility shift assay electrophoretically separates the fluorescently labeled peptides (substrate and phosphorylated product) following the kinase reaction. Both substrate and product are measured, and the ratio of these values is used to generate % conversion of substrate to product by the LabChip EZ Reader.
The reaction was stopped after 95 minutes by the addition of 50 μL of 30 mM EDTA. Ki determinations were made from a plot of the fractional velocity as a function of inhibitor concentration fit to the Morrison equation with the enzyme concentration as a variable.
For CDK4 and CDK6 mobility shift assays, see also Morrison, J. F. (1969) Kinetics of the reversible inhibition of enzyme-catalysed reactions by tight-binding inhibitors, Biochimica et biophysica acta 185, 269-286; and Murphy, D. J. (2004) Determination of accurate KI values for tight-binding enzyme inhibitors: an in silico study of experimental error and assay design, Analytical biochemistry 327, 61-67.

CDK2/Cyclin E1 = target: T2, CDK2/Cyclin E1 (Homo sapiens, UniProt P24941); assay: CDK2/Cyclin E1 mobility shift assay; assay type: biochemical; details: geometric mean, 150 μM ATP
T2 construct: Wild-type full length CDK2/wild-type full length Cyclin E1 enzyme complex was produced in-house
Experimental: (CPC Scientific, Sunnyvale, CA). The mobility shift assay electrophoretically separates the fluorescently labeled peptides (substrate and phosphorylated product) following the kinase reaction. Both substrate and product are measured, and the ratio of these values is used to generate % conversion of substrate to product by the LabChip EZ Reader. […] The assay was initiated with the addition of ATP, following a fifteen minutes pre-incubation of enzyme and inhibitor at room temperature in the reaction mixture. The reaction was stopped after 45 minutes at room temperature by the addition of 50 μL of 80 mM EDTA, pH 7.5. The Ki value was determined from the fit of the data to the Morrison tight-binding competitive inhibition equation with the enzyme concentration as a variable.

C[C@@]1(O)CCC[C@H]1n1c(=O)c(CC(F)F)cc2cnc(NC3CCN(S(N)(=O)=O)CC3)nc21 [Compound 1, 4-({6-(2,2-difluoroethyl)-8-[(1R,2R)-2-hydroxy-2-methylcyclopentyl]-7-oxo-7,8-dihydropyrido[2,3-d]pyrimidin-2-yl}amino)piperidine-1-sulfonamide]
IC50 [1]: 14.3 to 17.6 nM | Ki (CDK6/Cyclin D3): 3.1 nM | Ki (CDK2/Cyclin E1): 0.08 nM
